Data: patent US20020137054A1, “AXOR35, a G-protein coupled receptor” (SmithKline Beecham Corporation & SmithKline Beecham plc, priority 1999, published 2002)
Where a name gives a salt, the structure may show the parent alone.

What was measured:
AXOR35 [1] = target: T1, AXOR35 (Homo sapiens, UniProt Q9H3N8); conditions: histamine challenge of control cells transiently expressing AXOR35
Method: Prior to challenge with histamine, cells transiently expressing AXOR35 are treated with increasing concentrations of test compound. […] Antagonist activity is calculated as the concentration of test compound required to inhibit 50% of a maximum histamine response (IC50).

AXOR35 [2] = target: T1, AXOR35; conditions: calcium mobilization response, method analogous to Example 8

T1 sequence (Q9H3N8 whole entry): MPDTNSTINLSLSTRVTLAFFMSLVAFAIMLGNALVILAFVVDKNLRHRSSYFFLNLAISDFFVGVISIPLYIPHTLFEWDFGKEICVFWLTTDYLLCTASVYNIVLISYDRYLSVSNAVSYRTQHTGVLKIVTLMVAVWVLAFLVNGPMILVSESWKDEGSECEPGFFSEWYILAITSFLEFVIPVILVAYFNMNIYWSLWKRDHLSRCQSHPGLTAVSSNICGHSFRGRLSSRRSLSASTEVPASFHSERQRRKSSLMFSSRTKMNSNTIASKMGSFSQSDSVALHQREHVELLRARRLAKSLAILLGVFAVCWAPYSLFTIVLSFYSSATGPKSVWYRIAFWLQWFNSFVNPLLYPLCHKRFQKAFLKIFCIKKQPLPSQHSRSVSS

With `NCC(c1ccccc1)c1cnc[nH]1` (stereo not shown) (as salt: hydrochloride) the melting point was 264 to 266 °C.

Work on `NCC(Cc1ccc(Cl)cc1)c1c[nH]cn1` (stereo not shown) (as salt: hydrochloride) yielded a melting point of 254 to 256 °C.

With `NCCc1c[nH]cn1` [histamine, 1H-imidazole-4-ethanamine] the EC80 (AXOR35 [1]) was 0.1 µM and the “ligand for AXOR35” value (AXOR35 [2]) was “ligands for AXOR35”.
